From article PMC5882164, “A novel calcimimetic agent, evocalcet (MT-4580/KHK7580), suppresses the parathyroid cell function with little effect on the gastrointestinal tract or CYP isozymes in vivo and in vitro” (PLoS ONE, 2018)

What was measured:
Assay in all cases: CYP inhibition assay in human liver microsomes
Format in all cases: in vitro ADME
[1] = tested on: CYP3A4/5; details: no pre-incubation, read-out: IC50 direct inhibition of CYP3A4/5
Protocol: (§1) The direct inhibition of evocalcet (0.15~50 μM, 6-point concentrations) against the specific activities of 9 CYP isozymes (CYP1A2, CYP2A6, CYP2B6, CYP2C8, CYP2C9, CYP2C19, CYP2D6, CYP2E1, and CYP3A4/5) was examined in human liver microsomes without the pre-incubation of evocalcet, in the presence of the NADPH-generating system. Each CYP substrate was incubated with human liver microsomes in the absence or presence of evocalcet, and the inhibition of evocalcet for each CYP isozyme was measured.

[2] = biological target: T1, CYP2E1 (Homo sapiens, UniProt P05181); details: no pre-incubation, read-out: IC50 direct inhibition of CYP2E1
T1 construct: from tissue; host or cells: human liver microsomes
T1 sequence (P05181 whole entry): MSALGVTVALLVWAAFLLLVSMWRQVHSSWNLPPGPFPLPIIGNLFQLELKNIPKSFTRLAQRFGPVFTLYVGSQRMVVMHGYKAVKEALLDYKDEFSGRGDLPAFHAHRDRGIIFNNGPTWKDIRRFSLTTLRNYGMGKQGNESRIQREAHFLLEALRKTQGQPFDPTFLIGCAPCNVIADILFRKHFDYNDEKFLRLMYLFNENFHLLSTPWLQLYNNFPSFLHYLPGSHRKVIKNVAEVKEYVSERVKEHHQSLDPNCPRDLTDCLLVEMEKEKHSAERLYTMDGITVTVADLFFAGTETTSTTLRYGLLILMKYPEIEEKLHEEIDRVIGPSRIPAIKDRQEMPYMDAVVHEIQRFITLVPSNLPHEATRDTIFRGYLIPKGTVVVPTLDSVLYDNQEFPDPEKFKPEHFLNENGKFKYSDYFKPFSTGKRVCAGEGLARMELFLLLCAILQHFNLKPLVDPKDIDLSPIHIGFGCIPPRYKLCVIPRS
Protocol: as §1

[3] = biological target: T2, CYP2A6 (Homo sapiens, UniProt P11509); details: no pre-incubation, read-out: IC50 direct inhibition of CYP2A6
T2 construct: from tissue; host or cells: human liver microsomes
T2 sequence (P11509 1-494): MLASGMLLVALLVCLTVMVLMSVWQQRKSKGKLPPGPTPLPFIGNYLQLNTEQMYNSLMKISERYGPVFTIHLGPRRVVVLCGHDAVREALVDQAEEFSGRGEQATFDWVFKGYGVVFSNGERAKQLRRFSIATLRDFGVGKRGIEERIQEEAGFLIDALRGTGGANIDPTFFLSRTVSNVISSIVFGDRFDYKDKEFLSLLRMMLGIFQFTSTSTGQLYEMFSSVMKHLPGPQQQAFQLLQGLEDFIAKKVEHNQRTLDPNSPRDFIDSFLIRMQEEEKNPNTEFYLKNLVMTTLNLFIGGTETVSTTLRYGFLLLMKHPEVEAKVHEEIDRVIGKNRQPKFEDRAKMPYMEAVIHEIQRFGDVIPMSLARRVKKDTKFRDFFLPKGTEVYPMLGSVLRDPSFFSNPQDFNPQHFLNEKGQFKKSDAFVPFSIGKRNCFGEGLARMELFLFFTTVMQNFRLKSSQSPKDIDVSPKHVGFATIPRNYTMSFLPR
Protocol: as §1

[4] = biological target: T3, CYP2B6 (Homo sapiens, UniProt P20813); details: no pre-incubation, read-out: IC50 direct inhibition of CYP2B6
T3 construct: from tissue; host or cells: human liver microsomes
T3 sequence (P20813 1-491): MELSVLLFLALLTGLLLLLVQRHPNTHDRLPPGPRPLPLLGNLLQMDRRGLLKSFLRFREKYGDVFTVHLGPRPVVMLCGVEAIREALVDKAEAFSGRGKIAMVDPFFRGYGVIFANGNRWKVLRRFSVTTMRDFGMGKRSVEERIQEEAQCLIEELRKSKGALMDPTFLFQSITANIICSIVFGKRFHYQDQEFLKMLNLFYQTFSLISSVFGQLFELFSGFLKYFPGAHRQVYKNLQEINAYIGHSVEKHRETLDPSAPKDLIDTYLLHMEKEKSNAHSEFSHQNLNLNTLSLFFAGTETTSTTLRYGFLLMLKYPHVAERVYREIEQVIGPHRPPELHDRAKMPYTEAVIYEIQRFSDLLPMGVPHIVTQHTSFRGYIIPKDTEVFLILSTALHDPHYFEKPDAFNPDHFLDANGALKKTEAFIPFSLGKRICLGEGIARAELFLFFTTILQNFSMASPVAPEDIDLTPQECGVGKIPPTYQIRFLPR
Protocol: as §1

[5] = biological target: CYP2D6 (Homo sapiens, UniProt P10635); details: no pre-incubation
CYP2D6, sequence (P10635 whole entry): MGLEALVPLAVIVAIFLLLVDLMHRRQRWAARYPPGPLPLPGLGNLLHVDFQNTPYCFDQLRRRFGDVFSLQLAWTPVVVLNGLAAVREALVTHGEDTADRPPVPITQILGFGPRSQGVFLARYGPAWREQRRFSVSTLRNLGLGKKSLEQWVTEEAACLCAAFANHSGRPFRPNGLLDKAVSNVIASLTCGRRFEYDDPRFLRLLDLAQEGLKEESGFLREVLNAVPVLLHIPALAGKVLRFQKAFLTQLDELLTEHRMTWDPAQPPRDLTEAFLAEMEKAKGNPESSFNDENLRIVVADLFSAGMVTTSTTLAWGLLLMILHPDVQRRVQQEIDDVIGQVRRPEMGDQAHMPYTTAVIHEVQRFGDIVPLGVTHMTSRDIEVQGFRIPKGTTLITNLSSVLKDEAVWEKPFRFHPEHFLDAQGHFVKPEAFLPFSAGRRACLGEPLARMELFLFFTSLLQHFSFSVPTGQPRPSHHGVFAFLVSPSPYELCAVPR
Protocol: as §1

[6] = biological target: T4, CYP2C8 (Homo sapiens, UniProt P10632); details: no pre-incubation, read-out: IC50 direct inhibition of CYP2C8
T4 construct: from tissue; host or cells: human liver microsomes
T4 sequence (P10632 1-490): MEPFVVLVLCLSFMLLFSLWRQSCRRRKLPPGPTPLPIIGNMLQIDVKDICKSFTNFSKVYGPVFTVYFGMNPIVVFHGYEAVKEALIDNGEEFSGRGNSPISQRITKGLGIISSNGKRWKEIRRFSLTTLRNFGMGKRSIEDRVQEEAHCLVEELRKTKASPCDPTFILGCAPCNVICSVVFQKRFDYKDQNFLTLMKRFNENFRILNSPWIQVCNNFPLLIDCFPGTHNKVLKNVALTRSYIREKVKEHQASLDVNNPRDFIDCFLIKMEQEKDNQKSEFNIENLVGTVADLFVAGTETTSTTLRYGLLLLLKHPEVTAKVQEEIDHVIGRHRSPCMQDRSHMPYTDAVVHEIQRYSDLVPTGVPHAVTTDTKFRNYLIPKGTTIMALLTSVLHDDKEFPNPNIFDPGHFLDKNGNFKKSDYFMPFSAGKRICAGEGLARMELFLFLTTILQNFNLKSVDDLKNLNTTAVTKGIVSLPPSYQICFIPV
Protocol: as §1

C[C@@H](N[C@H]1CCN(c2ccc(CC(=O)O)cc2)C1)c1cccc2ccccc12 [evocalcet]
IC50 [1]: > 50 µM | IC50 [2]: > 50 µM | IC50 [3]: > 50 µM | IC50 [4]: > 50 µM | CYP2D6 activity in the presence of evocalcet ([5]; 50 μM evocalcet, direct inhibition): 50.7% | IC50 ([5]; read-out: IC50 direct inhibition of CYP2D6): > 50 µM | IC50 [6]: > 50 µM
